Test results reported in patent publication US4988681A, “Phosphinic acid derivatives” (Banyu Pharmaceutical Co., Ltd., priority 1988, dated 1991).
Where two headings read alike, the source gives them in different places.

Key:
[1] = system: DHP-I; settings: in words, cited from earlier work
[2] = molecular target: T1, porcine kidney dehydropeptidase I (Sus scrofa, UniProt P22412); test: Inhibitory activity on porcine kidney dehydropeptidase I (DHP-I); type: biochemical
T1 construct: Frozen porcine kidney cortex was homogenized; from tissue; host or cells: porcine kidney cortex
T1 sequence (P22412 17-409): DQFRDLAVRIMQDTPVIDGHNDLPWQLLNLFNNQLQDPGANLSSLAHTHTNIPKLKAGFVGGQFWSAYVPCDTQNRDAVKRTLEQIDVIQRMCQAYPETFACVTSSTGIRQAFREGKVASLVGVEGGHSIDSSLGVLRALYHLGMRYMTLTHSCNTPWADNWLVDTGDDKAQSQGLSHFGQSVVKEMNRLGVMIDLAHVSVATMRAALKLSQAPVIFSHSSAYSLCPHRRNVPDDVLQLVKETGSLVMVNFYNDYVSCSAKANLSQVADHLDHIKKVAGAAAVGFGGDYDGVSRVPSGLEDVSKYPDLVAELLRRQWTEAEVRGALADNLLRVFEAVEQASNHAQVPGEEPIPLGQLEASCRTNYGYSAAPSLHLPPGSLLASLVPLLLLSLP
Protocol: (1) Inhibitory activity on porcine kidney dehydropeptidase I
(i) Purification of porcine dehydropeptidase I
Frozen porcine kidney cortex was homogenized. Butanol (1/4 volume) pre-cooled in a dry ice-acetone bath was added to the homogenate, and the mixture was stirred at 4° C. for 43 hours. The mixture was then dialyzed for one day and centrifuged at 3,000 g for 30 minutes. To the resulting supernatant was added ammonium sulfate. A precipitate at the salt concentration range between 50 and 75% was collected to give a crude enzyme preparation which was re-dissolved in a 50 mM MOPS buffer containing 0.5 M NaCl. The solution was charged on a cilastatin affinity column. Elution with a 50 mM MOPS buffer containing 0.5 M NaCN gave a purified enzyme preparation.
(ii) Measurement of inhibitory activity
The resulting enzyme preparation (3 mU) and an inhibitor were pre-incubatedat 37° C. for 3 hours in 2.7 ml of a 50 mM MOPS buffer (pH 7.4), and then 2.475 ml of the mixture was transferred into a cuvette. As a substrate, 25 microliters of a 5 mM glycyldehydrophenylalanine solution in a 50 mM MOPS buffer (pH 7.4) was added to start an enzymic reaction. The reaction was carried out at 37° C. in a spectrophotometer fitted with a constant-emperature device, and a decrease of the absorbance at 275 nm during a period of 5 minutes was measured. […] An IC50 value was calculated from the percent inhibition data.
One unit (U) is defined as the amount of the enzyme which hydrolyzes 1 micromole of the substrate (glycyldehydrophenylalanine) per minute at a substrate concentration of 0.05 mM at 37° C. in a 50 mM MOPS buffer (pH 7.4).

[3] = Effect on urinary recovery of carbapenem (imipenem) in rats; type: in vivo, Male SD rats; settings: urine up to 8 hours, n = 3
Protocol: (2) Effect on urinary recovery of carbapenem
Male SD rats (8 week-old) were grouped, three per group. Imipenem alone was intravenously administered in a dose of 10 mg/kg to a first group. […] For comparison, a combination of imipenem (10 mg/kg) and cilastatin (10 mg/kg) was intravenously administered to a fourth group.
The urinary recovery of imipenem was calculated.

[4] = Pharmacokinetic evaluation: plasma concentration in rats; type: in vivo, Male SD rats; settings: for AUC / concentration at 0.5 h / concentration at 0.25 h / concentration at 5 min / concentration at 1 h / concentration at 2 h / concentration at 4 h / concentration at 6 h / concentration at 8 h / concentration at 24 h: rat; for AUC: trapezoidal rule; for concentration at 0.5 h: 1/2 h; for concentration at 0.25 h: 1/4 h; for concentration at 5 min: 1/12 h
Protocol: (4) Pharmacokinetic evaluations
Male SD rats ([…]) were divided into groups each consisting of three animals. […] Furthermore, cilastatin was intravenously administered to a 14th group as a control group.
Plasma samples were taken periodically from the carotid artery through a cannula inserted into it at the points of 1/12, 1/4, 1/2, 1, 2, 4, 6, 8 and 24 hours after the administration.
The area under the curve (AUC) of the plasma concentration was determined according to the trapezoidal rule.

[5] = system: nephrotoxicity induced by imipenem; test: Protective action on nephrotoxicity induced by imipenem in rabbits; type: in vivo, male Japanese white rabbits; settings: imipenem 150 mg/kg alone
Protocol: (3) Protective action on nephrotoxicity induced by carbapenem antibiotics
Twelve male Japanese white rabbits (18 week-old; body weight 3.19-3.54 kg) were divided into three groups each consisting of 4 animals. Imipenem alone was administered in a dose of 150 mg/kg to a first group. To a second group, a combination of imipenem (150 mg/kg) and the compound No. 2 (150 mg/kg) was administered. To a third group as a control, sterilized physiological saline was administered. In all cases, the administration was effected through the auricular vein. Forty-eight hours later, a blood sample was taken from each of the animals, and the BUN and creatinine values were measured. The kidneys of the rabbits were taken and examined histopathologically.

[6] = DHP-I inhibitory compounds of cited literature including cilastatin
[7] = in vivo, iv 10 mg/kg (cilastatin dose not given)
[8] = substrate glycyldehydrophenylalanine, pH 7.4, 37° C., 3 h pre-incubation, read-out: Concentration producing 50% inhibition (IC50)
[9] = plasma, iv 10 mg/kg (cilastatin dose not given)
[10] = plasma, iv 10 mg/kg (cilastatin dose not given), N.D.: below the detection limit
[11] = plasma, iv 10 mg/kg, N.D.: below the detection limit
[12] = plasma, po 10 mg/kg, N.D.: below the detection limit
[13] = plasma, ester po, 10 mg/kg equivalent to compound No. 2, calculated as free acid (No. 2)

SMILES | IC50 [2, 8] | AUC [4, 9] | AUC ([4]; plasma, po 10 mg/kg) | concentration at 0.5 h [4, 9] | concentration at 0.25 h [4, 9] | concentration at 5 min [4, 9] | concentration at 1 h [4, 10] | concentration at 2 h ([4]; plasma, iv 10 mg/kg) | concentration at 4 h ([4]; plasma, iv 10 mg/kg) | concentration at 6 h [4, 11] | concentration at 8 h ([4]; plasma, iv 10 mg/kg) | concentration at 24 h [4, 11] | concentration at 0.5 h ([4]; plasma, po 10 mg/kg) | concentration at 0.25 h ([4]; plasma, po 10 mg/kg) | concentration at 5 min ([4]; plasma, po 10 mg/kg) | concentration at 1 h ([4]; plasma, po 10 mg/kg) | concentration at 2 h ([4]; plasma, po 10 mg/kg) | concentration at 4 h ([4]; plasma, po 10 mg/kg) | concentration at 6 h ([4]; plasma, po 10 mg/kg) | concentration at 8 h [4, 12] | further results
CC1(C)C[C@@H]1C(=O)N/C(=C\CCCCSC[C@H](N)C(=O)O)C(=O)O [Cilastatin, reference compound] |  |  |  |  |  |  |  |  |  |  |  |  |  |  |  |  |  |  |  |  | Activity in oral administration [1, 6]: do not show sufficient activity in oral administration; Duration of action [1, 6]: do not always have satisfactory duration of action; Effect on potential renal toxicity of imipenem ([1]; combined use with imipenem): prevent its potential renal toxicity; Effect on urinary recovery of imipenem ([1]; combined use with imipenem): greatly improve urinary recovery of imipenem; Oral absorption [1]: not orally absorbable; IC50 [2]: 100 nM; Urinary recovery of imipenem, Mean ± S.D. ([3]; inhibitor 10 mg/kg iv with imipenem 10 mg/kg iv): 85.9 ± 2.9%; AUC [4, 7]: 12000 ng·h/mL; concentration at 0.5 h [4, 7]: 5800 ng/mL; concentration at 0.25 h [4, 7]: 18800 ng/mL; concentration at 5 min [4, 7]: 46900 ng/mL
O=C(O)/C(=C/C1CCCCC1)CP(=O)(O)CC1CCCC1 [Compound No. 17, (Z)-3-cyclohexyl-2-(cyclopentylmethylhydroxyphosphinoyl)methylpropenoic acid] | 18 nM | 226000 ng·h/mL | 18400 ng·h/mL | 55000 ng/mL | 74700 ng/mL | 86700 ng/mL | 38000 ng/mL | 25200 ng/mL | 14800 ng/mL | 10800 ng/mL | 6400 ng/mL | 500 ng/mL | 5000 ng/mL | 4100 ng/mL | 500 ng/mL | 5000 ng/mL | 3200 ng/mL | 2100 ng/mL | 1000 ng/mL | 100 ng/mL | 
CC(C)CP(=O)(O)C/C(=C\CCCSC[C@H](N)C(=O)O)C(=O)O [Compound No. 23, (Z)-6-[(L)-2-amino-2-carboxyethyl]thio-2-(hydroxyisobutylphosphinoyl)methyl-2-hexenoic acid] | 48 nM | 17900 ng·h/mL |  | 13900 ng/mL | 21000 ng/mL | 28700 ng/mL | 4200 ng/mL | 900 ng/mL | 100 ng/mL |  |  |  |  |  |  |  |  |  |  |  | 
Cc1oc(=O)oc1COC(=O)/C(=C/C1CCCCC1)CP(=O)(O)CC(C)C [Compound No. 27, (5-methyl-2-oxo-1,3-dioxol-4-yl)methyl (Z)-3-cyclohexyl-2-(hydroxyisobutylphosphinoyl)methylpropenoate] | 150000 nM |  |  |  |  |  |  |  |  |  |  |  |  |  |  |  |  |  |  |  | AUC [4, 13]: 56900 ng·h/mL; concentration at 0.5 h [4, 13]: 13300 ng/mL; concentration at 0.25 h [4, 13]: 10100 ng/mL; concentration at 5 min [4, 13]: 1500 ng/mL; concentration at 1 h [4, 13]: 11500 ng/mL; concentration at 2 h [4, 13]: 9300 ng/mL; concentration at 4 h [4, 13]: 4600 ng/mL; concentration at 6 h [4, 13]: 2600 ng/mL; concentration at 8 h [4, 13]: 1400 ng/mL; Oral absorbability ([4]; rats, in words): better oral absorbability than the compound No. 2
O=C(O)/C(=C/C1CCCCC1)CP(=O)(O)CC1CCCCC1 [Compound No. 28, (Z)-3-cyclohexyl-2-(cyclohexylmethylhydroxyphosphinoyl)methylpropenoic acid] | 50 nM | 82400 ng·h/mL | 19000 ng·h/mL | 30400 ng/mL | 40600 ng/mL | 58100 ng/mL | 18300 ng/mL | 11700 ng/mL | 4800 ng/mL | 2300 ng/mL | 1000 ng/mL | 100 ng/mL | 3400 ng/mL | 3100 ng/mL | 1300 ng/mL | 2500 ng/mL | 3000 ng/mL | 1900 ng/mL | 1100 ng/mL | 500 ng/mL | 
C[C@@H](O)[C@H]1C(=O)N2C(C(=O)O)=C(SCCN=CN)C[C@H]12 [Imipenem, reference compound] |  |  |  |  |  |  |  |  |  |  |  |  |  |  |  |  |  |  |  |  | Necrosis of the kidney tissue, number of rabbits which necrotized versus number tested [5]: 4/4; BUN ([5]; auricular vein, 48 hours, * P ≤ 0.05): 70.8 mg/100 ml; Necrosis of the kidney tissue ([5]; grade in words): Marked; Urinary recovery of imipenem, Mean ± S.D. ([3]; imipenem 10 mg/kg iv alone, no inhibitor): 29.6 ± 4.8%
